Reference: patent publication US20200009173A1, “TRIAZOLE-CONTAINING MACROLIDES AND OPHTHALMIC USES THEREFOR” (Tetard, Inc., priority 2017, published 2020)
In brackets after ≈: the same amount, converted by molar mass. Where two headings read alike, the source gives them in different places.

Key:
Moraxella catarrhalis = assay: MIC, Moraxella catarrhalis; assay type: cell-based; conditions: N = 21
[1] = system: phagocytized L. monocytogenes; assay: Activity against phagocytized L. monocytogenes; assay type: cell-based
P. Acnes = assay: MICs of solithromycin and comparator drugs against P. acnes; assay type: cell-based
Excerpt: EXAMPLE. The formulations described herein show overall higher potency against ocular pathogens than commercial standards. MICs (μg/ml) of Solithromycin and Comparator Drugs against P. Acnes (51 Species)

Chlamydophila pneumoniae = assay: MIC, Chlamydophila pneumoniae (10 strains); assay type: cell-based
Streptococcus mitis = assay: MIC, Streptococcus mitis; assay type: cell-based; conditions: N = 73
Streptococcus agalactiae = assay: MIC, Streptococcus agalactiae; assay type: cell-based; conditions: N = 535
Peptostreptococcus spp. = assay: MIC, Peptostreptococcus spp.; assay type: cell-based; conditions: N = 10
[2] = system: phagocytized L. pneumophila; assay type: cell-based
Mycobacterium avium = assay: MIC, Mycobacterium avium; assay type: cell-based; conditions: N = 30
pathogenic bacteria = assay type: cell-based
[3] = system: Streptococci (Groups C, F, G); assay: MIC, Streptococci (Groups C, F, G); assay type: cell-based; conditions: N = 185
CA-MRSA = assay: MIC, CA-MRSA; assay type: cell-based, Staphylococcus aureus; conditions: N = 30
[4] = system: Streptococcus pyogenes (a); assay: MIC, Streptococcus pyogenes (a); assay type: cell-based; conditions: N = 407
Ureaplasma urealyticum = assay: MIC, Ureaplasma urealyticum; assay type: cell-based; conditions: N = 10
Legionella pneumophila = assay: microbe, parasite or virus in culture; assay type: cell-based
log P = assay type: physicochemical
Experimental: Formulated compounds are tested for their transverse diffusive ability through the membrane. Diffusion through biological membranes is directly correlated to the formulation excipients, its physical state (suspension, solution, emulsion, etc.) and its log P. […] For compounds with log P>3, the compound typically permeates the lipid epithelium of the cornea, only to be hindered by the hydrophilic stroma. For an indication like blepharitis, high corneal concentrations achieved with repeat dosing will result in a drug depot, acting like a sustained release system.

CXCL8 = CXCL8 (IL-8) production in LPS-stimulated PMA-differentiated U937 cells (ELISA); assay type: cell-based, human
Experimental: EXAMPLE. […] Cells. The human monocytic cell line U937 was obtained from the American Type Culture Collection (ATCC, Rockville, Md.). PBMCs from COPD patients were obtained from Brompton hospital and separated by AccuSPIN (Sigma-Aldrich). […] U937 cells were differentiated into adherent macrophage-like morphology by exposure to PMA (50 ng/ml) for 48 h in complete growth medium. Cell viability was assessed microscopically by trypan blue staining. Cell toxicity was determined by MTT assay as needed. This study was approved by the ethics committee of the Royal Brompton Hospitals, and all subjects gave written informed consent. Cytokine ELISA. TNFα and IL-8 concentrations in the supernatant of cell cultures were determined by sandwich ELISA according to the manufacturer's instructions (R&D Systems Europe, Abingdon, UK). Statistical analysis. The results were expressed as the mean±SEM. Comparisons of data in two groups were performed using the Student's t test or the Wilcoxon signed rank test. Multiple comparisons were made by one-way ANOVA with post hoc test (Dunnett's) as appropriate. The difference was considered significant at p<0.05. […] Anti-inflammatory effects of solithromycin in U937 cells.

[5] = Cutibacterium acnes, 51 species

SMILES: CC[C@H]1OC(=O)[C@@](C)(F)C(=O)[C@H](C)[C@@H](O[C@@H]2O[C@H](C)C[C@H](N(C)C)[C@H]2O)[C@](C)(OC)C[C@@H](C)C(=O)[C@H](C)[C@H]2N(CCCCn3cc(-c4cccc(N)c4)nn3)C(=O)O[C@]12C [CEM-101, solithromycin]
- MIC50 (Moraxella catarrhalis; Moraxella catarrhalis): 0.12 µg/mL (≈ 0.142 µM)
- MIC90 (Moraxella catarrhalis; Moraxella catarrhalis): 0.12 µg/mL (≈ 0.142 µM)
- MIC Range (Moraxella catarrhalis): ≤0.008 to 0.5 µg/mL
- potency relative to azithromycin [1]: 50 fold
- MIC Range (P. Acnes): ≤0.002 to 0.25 µg/mL
- MIC50 (P. Acnes; [5]): 0.015 µg/mL (≈ 0.0178 µM)
- MIC90 (P. Acnes; [5]): 0.06 µg/mL (≈ 0.071 µM)
- MIC90 (Chlamydophila pneumoniae; Chlamydia pneumoniae, 10 strains, read-out: MIC90): 0.25 µg/mL (≈ 0.296 µM)
- MIC50 (Chlamydophila pneumoniae; Chlamydia pneumoniae, N = 10): 0.25 µg/mL (≈ 0.296 µM)
- MIC90 (Chlamydophila pneumoniae; N = 10): 0.25 µg/mL (≈ 0.296 µM)
- MIC Range (Chlamydophila pneumoniae; N = 10): 0.25 to 1 µg/mL
- MIC Range (Streptococcus mitis): ≤0.03-0.25^ μg/mL
- MIC50 (Streptococcus mitis; Streptococcus mitis): ≤ 0.03 µg/mL
- MIC90 (Streptococcus mitis; Streptococcus mitis): 0.06 µg/mL (≈ 0.071 µM)
- MIC Range (Streptococcus agalactiae): ≤0.03-0.5 ^ μg/mL
- MIC50 (Streptococcus agalactiae; Streptococcus agalactiae): ≤ 0.03 µg/mL
- MIC90 (Streptococcus agalactiae; Streptococcus agalactiae): ≤ 0.03 µg/mL
- MIC Range (Peptostreptococcus spp.): ≤0.03-0.25^ μg/mL
- MIC50 (Peptostreptococcus spp.; Peptostreptococcus): 0.06 µg/mL (≈ 0.071 µM)
- MIC90 (Peptostreptococcus spp.; Peptostreptococcus): 0.25 µg/mL (≈ 0.296 µM)
- potency relative to azithromycin [2]: 100 fold
- MIC50 (Mycobacterium avium; Mycobacterium avium): 1 µg/mL (≈ 1.18 µM)
- MIC90 (Mycobacterium avium; Mycobacterium avium): 1 µg/mL (≈ 1.18 µM)
- MIC Range (Mycobacterium avium): 1 µg/mL (≈ 1.18 µM)
- activity against AZI resistant strains (pathogenic bacteria): active against all AZI resistant strains tested
- activity at acidic pH relative to AZI (pathogenic bacteria; acidic pH, including in L. monocytogenes and S. aureus): 100-200 fold
- activity relative to conventional macrolides (pathogenic bacteria; greater activity than conventional macrolides): 10 fold
- intracellular activity relative to AZI (pathogenic bacteria; intracellular): 10 fold
- activity against phagocytized L. monocytogenes and L. pneumophila relative to conventional macrolides (pathogenic bacteria; phagocytized bacteria): 50-100 fold
- MIC50 [3]: ≤ 0.03 µg/mL
- MIC90 [3]: ≤ 0.03 µg/mL
- MIC Range [3]: ≤0.03-0.25^ μg/mL
- MIC Range (CA-MRSA): 0.06 to 0.12 µg/mL
- MIC50 (CA-MRSA; Staphylococcus aureus, MRSA): 0.12 µg/mL (≈ 0.142 µM)
- MIC90 (CA-MRSA; Staphylococcus aureus, MRSA): 0.12 µg/mL (≈ 0.142 µM)
- MIC Range [4]: ≤0.03-0.5 ^ μg/mL
- MIC50 ([4]; Streptococcus pyogenes): ≤ 0.03 µg/mL
- MIC90 ([4]; Streptococcus pyogenes): ≤ 0.03 µg/mL
- MIC Range (Ureaplasma urealyticum): 0.004 to 0.063 µg/mL
- MIC50 (Ureaplasma urealyticum; Ureaplasma urealyticum): 0.008 µg/mL (≈ 0.00947 µM)
- MIC90 (Ureaplasma urealyticum; Ureaplasma urealyticum): 0.031 µg/mL (≈ 0.0367 µM)
- MIC50 (Legionella pneumophila; Legionella pneumophila): ≤ 0.015 µg/mL
- MIC90 (Legionella pneumophila; Legionella pneumophila): ≤ 0.015 µg/mL
- MIC90 (Legionella pneumophila; N = 30): ≤0.015 µg/mL
- MIC Range (Legionella pneumophila; N = 30): ≤0.015 µg/mL
- logP (log P): 4.2
- IC50 (CXCL8; Homo sapiens, U-937, LPS, PMA-differentiated U937 cells, read-out: IC50 on CXCL8 release): 78.2 ± 9.5 µM
- effect on CXCL8 production (CXCL8; at 100 μM): significantly inhibited
